Consider two molecules from patent publication US9382204B2, “Inhibitors targeting the DNA-binding domain of human STAT3 for treatment of metastatic cancers” (Indiana University Research and Technology Corporation, priority 2013, dated 2016).

Data set [1] has as its system A549 and MDA-MB-231 cells. Description: Luminescence-based glutathione alkylation assay (GSH-Glo). Type of data set: cell-based, human. The note with it: 20 μM inS3-54 48 hours, 15 mM iodoacetamide 30 minutes. An excerpt:
FIG. 5. Effect of inS3-54 glutathione level. […] (***p<0.001).
To further eliminate the possibility that inS3-54 has alkylating activity, we performed luminescence-based glutathione alkylation assay.

Data set [2] can be described thus: Cytotoxicity sulphorhodamine (SRB) assay, non-cancerous cells. The note with it: human, IMR90 lung fibroblast and MCF10A1 mammary epithelial cells. The procedure:
FIG. 7. […] (A) Level of STAT3 expression and activation. […] Actin was used as a loading control. (B-C) Cytotoxicity assay. […] IC50 of inS3-54 for each cell line was derived using PrismPad program. (D) Apoptosis assay.
Cytotoxicity of inS3-54 was determined using sulphorhodamine colorimetric assay as described previously (41). Photometric enzyme immunoassay using Cell Death Detection ELISA Plus kit (Roche Diagnostics, Indianapolis, Ind.) was performed for quantitative in-vitro determination of cytoplasmic histone-associated DNA fragments and apoptosis as we previously described.
Survival, apoptosis, migration, and invasion assays were performed as previously described. Briefly, effect of STAT3 inhibitors on cell survival were analyzed using sulforhodamine B (SRB) assay. Apoptosis induced by STAT3 inhibitors cells were quantified using Cell Death Detection ELISA^PLUS Kit (Roche, Mannheim, Germany) by enzyme-linked immunosorbent assay (ELISA) according to manufacturer's instructions. Wound filling assay was performed by culturing 1×10^5 cells/well in 6-well plates, followed by generating a wound using a pipet tip and continuous culture with photographic recording at different times.

Data set [3] relates to MDA-MB-468. Description: PARP cleavage in MDA-MB-468 cells. The note with it: 72-hour treatment, data not shown. Type of data set: cell-based, human.
The subject of data set [4] is A549 cells. Description: Mouse xenograft model of A549 cells. In kind it is in vivo, NOD/SCID mice. The procedure: For efficacy study. 5×10^6 A549 cells were injected subcutaneously in the flanks of 12 NOD/SCID mice. When the tumor volume reached about 50.0 mm^3, the mice were randomized into two different groups (6/group) with one treated by formulation vehicle control (Pharmatek Laboratories, San Diego, Calif.) and the other by A18 at 200 mg/kg with oral dosing every two days for four weeks. One mouse in each group died during the study and was eliminated. Tumor volume and body weight were measured twice a week. On the 35th day after implant, mice were euthanized and the tumor tissues were harvested and weighed. Necropsy was also performed to determine the changes in heart, lungs, kidneys, liver and spleen. To evaluate the histological alternation, metastasis in the lung and the expression of STAT3 and its downstream proteins, paraffin-embedded tissue sections were stained with ematoxylin and eosin (H&E) and/or used for immunohistochemistry analysis.

Where [5] appears, read: 200 mg/kg oral, every two days for four weeks.

The term IC50 denotes the point on the concentration scale where inhibition reaches its midpoint. The low end stands for greater potency, the high end for weaker potency. As to `O=C(O)c1ccc(N2C(=O)/C(=C/c3ccc([N+](=O)[O-])cc3)C=C2c2ccccc2)cc1` [inS3-54, 4-[(3E)-3-[(4-nitrophenyl)-methylidene]-2-oxo-5-phenylpyrrol-1-yl]benzoic acid], in data set [1], the glutathione level result was “did not significantly reduce”. The concentration for half-maximal inhibition (IC50) at 72 h in data set [2] was 10 to 12 µM. In addition, the “cleavage of PARP” value in data set [3] is given as “induced cleavage of PARP”.

Regarding `O=C1C(=Cc2ccc(Cl)cc2)C=C(c2ccccc2)N1c1ccc(O)cc1` [Compound A18], in data set [4] (setting [5]), the “final tumor weight compared to control-treated group” value is “significantly less”, the mouse body weight result is on record as “no significant effect”, the “weight of other organs” value was “no difference” and the “xenograft tumor growth compared to vehicle control” value is “significantly reduced”. Further, the lung metastasis entry in data set [4] (H&E staining and histology) is given as “None of the A18-treated mice has any signs of lung metastasis”. In addition, in data set [4] (immunohistochemistry), the “expression of survivin and VEGF in xenograft tumors” value was “reduced”.
